Results taken from PMC3541985, “Improvement of Catalytic Efficiency, Thermo-stability and Dye Decolorization Capability of Pleurotus ostreatus IBL-02 laccase by Hydrophobic Sol Gel Entrapment” (Chemistry Central Journal, 2012).

Test system: T1, P. ostreatus IBL-02 laccase
T1 construct: gene pox2
Conditions: free (not immobilised) enzyme; ABTS varied 0.1-1 mM, so the printed unit mM is doubtful; standard assay malonate buffer pH 4.5, 25°C

Km: 33 mM
Compound: CCn1c(=NN=c2sc3cc(S(=O)(=O)O)ccc3n2CC)sc2cc(S(=O)(=O)O)ccc21 [ABTS, 2, 2′-azino-bis-3-ethylbenzothiazoline-6-sulfonic acid]
